From publication PMC12598805, “Crystal Structure–Activity Relationship of Some MeO Phenylacrylonitriles: Dual Antimicrobial–Cytotoxic Effects and in Silico Perspectives” (ChemistryOpen, 2025)
Read-outs that look alike come from different tables or passages of the source.

Key:
Assay type in all cases: cell-based
[1] = system: human breast carcinoma (MCF‐7) cells; assay: Cytotoxicity, CCK8 cell viability; conditions: for IC50: Homo sapiens, MCF7, read-out: Cytotoxic activity IC50
Excerpt: (§1) We investigated the cytotoxic effects of acrylonitrile derivatives 2(a–c) on human lung carcinoma (A549, CCL‐185) cells purchased from American Culture Collection and human breast carcinoma (MCF‐7) cells purchased from Republic of Turkey Ministry of Agriculture and Forestry Şap Institute, (HUKUK, 00092502), In addition, mouse fibroblast cells (L929, CCL‐1) purchased from American Culture Collection were used to observe the effects of the compounds on healthy cells. In 25 T Flask, A549 cells were grown in dulbecco's modified eagle's medium, MCF‐7, and L929 cells were grown in eagle's minimum essential medium (EMEM), 10% fetal bovine serum and 1% Penicillin‐Streptomycin at 37 °C in a 5% CO2 and 100% humidified incubator. Cell proliferation was checked every day. Cells were taken into the experiment when the cell density reached 70% to 80%. (See Supporting Information for experimental preparation of biological studies).
(§2) The compounds 2a, 2b, and 2c were dissolved in 99.8% Dimethyl sulfoxide (DMSO) respectively, as
(§3) 10 mM main stock. To prepare the doses of acrylonitrile compounds used in the experiment to be
(§4) applied to the cells, five different concentrations of 31.25; 62.5; 125; 250 and 500 μM were prepared
(§5) by diluting the main stock solutions (10 mM) with the medium selected according to the cells. 5-
(§6) Fluorouracil (5-FU) was selected as a positive control in the study. After the 5-FU main stock solution
(§7) was dissolved with DMSO to be 10 mM, the concentrations to be used were diluted with the selected
(§8) media and made ready for the experimental plan. The concentrations used for 5-FU were prepared in
(§9) the same doses used for acrylonitrile derivatives. For the negative control group, groups containing
(§10) only media and no substance were used. Prepared acrylonitrile compounds and 5-FU concentrations
(§11) were added to the wells in three replicates for each dose, and their effects on cell viability at 24 and 48
(§12) Trypan blue solution (Gibco, 1525061) was used to distinguish between living and dead cells in the
(§13) study. Trypan blue passes uncontrollably through the membrane of dead cells that have lost their cell
(§14) membrane integrity and stains the cell blue. Living cells, on the other hand, are not stained because
(§15) Live cell counts were performed using trypan blue using a
(§16) cell counter (Logos Luna II).
(§17) In order to detach the cells adhering to the flasks from the bottom, 500 μL of 0.25% Trypsin-EDTA
(§18) (Gibco, 15400054) solution was added and treated for five minutes.
(§19) detach from the bottom under an inverted microscope (Zeiss Primovert, Germany), medium containing
(§20) 10% FBS was added. After centrifugation at 300 g for 5 minutes and discarding the medium, 1 mL of
(§21) medium was added and the cells were seeded into 96-well culture dishes as 1x10^4 cells in 100 μL per
(§22) Cell Counting Kit 8 (CCK8; Medchem, 146436) was used to determine cell viability. After adding 20 μL
(§23) of CCK8 solution to each well in the dark, 96-well culture dishes were wrapped with aluminum foil and
(§24) kept in a CO2 incubator at 37 °C for 2 hr. Then, it was automatically read with a microplate reader
(§25) (Chromate) at 450 and 630 nm wavelengths. The following formula was used to determine cell
(§26) % Viability = (Sample Well−Blank) (Negative Control−Blank)×100 (1)
(§27) The half-maximal inhibitory concentration (IC50) was calculated as 50% cell death causing dose
(§28) compared to the control group. All data are given as the mean percent fraction of control ± SEM.
(§29) Statistical analysis was done by one-way analysis of variance (ANOVA), followed by Tukey’s multiple
(§30) comparison tests. IBM SPSS Statistics 22 was used to utilize statistical analysis. […]

[2] = system: human lung carcinoma (A549, CCL‐185) cells; assay: Cytotoxicity, CCK8 cell viability; conditions: for suppressive effect on cell proliferation / viability: 31.25 to 500 μM; for cell suppressive effect: concentrations of 31.25, 62.5, 125 and 250 μM; for IC50: Homo sapiens, read-out: Cytotoxic activity IC50
Excerpt: as §1, §2, §3, §4, §5, §6, §7, §8, §9, §10, §11, §12, §13, §14, §15, §16, §17, §18, §19, §20, §21, §22, §23, §24, §25, §26, §27, §28, §29, §30

[3] = system: Pseudomonas aeruginosa (ATCC 27853); assay: Agar diffusion, zone of inhibition; conditions: P.aeruginosa, compounds at 50 mg mL^−1; for zone of inhibition at 50 mg/mL: Pseudomonas aeruginosa, ATCC27853
Excerpt: The antibacterial and antifungal activities were reported utilizing the method described by the Clinical & Laboratory Standards Institute.^[ [31], [32] ^] Agar diffusion method was used to determine the antimicrobial activity of the synthesized substances. The media used were mueller hinton agar (MHA) for bacteria and sabouraud‐dextrose agar (SDA) for fungi (Merck), as recommended by the manufacturer.
The synthesized compounds were initially investigated for their antimicrobial activity to elucidate the potential therapeutic utility against various pathogenic microbes using the agar plate diffusion method. The compounds were tested at a concentration of 50 mg mL^−1, and the antibiotics (ampicillin, kanamycin, and amphotericin B) were used at 5 mg mL^−1. […] K.pneumoniae and B.cereus were resistant to ampicillin, while they were susceptible to kanamycin with inhibition values of 30 and 26 mm, respectively. No antimicrobial activity of the compounds was observed against E.faecalis, S.typhimurium, K.pneumoniae, and for the fungus compared to Amphotericin B (20 mm). […]
Pseudomonas aeruginosa (ATCC 27853) […]
ATCC: American Type Culture Collection; NRRL: Northern Regional Research Laboratory The compounds 2(a-c) obtained could only be completely solubilised with dimethyl sulphoxide (DMSO) and the highest possible stock solutions of 50 mg.mL-1 were prepared. To these wells 50 μl of the previously prepared substances were transferred using sterile micropipette tips. For comparison, Ampicillin and kanamycin antibiotics for bacteria and Amphotericin B antibiotics for fungus were used as positive controls and DMSO was used as negative control. The prepared petri plates were kept at +4°C for about 1 hour and then the bacterial cultures were incubated at 37°C for 18-24 hours and mould cultures at 27-30°C for 48-72 hours. The zones formed were measured millimetrically with callipers. The experiments were performed with three repetitions. […]

Structure (SMILES) | IC50 ([1]; MCF‐7, 24 h) | IC50 ([1]; MCF‐7, 48 h) | decrease in cell viability ([1]; MCF‐7, 24 h, 31.25 μM) | decrease in cell viability ([1]; MCF‐7, 24 h, 62.5 μM) | decrease in cell viability ([1]; MCF‐7, 24 h, 125 μM) | decrease in cell viability ([1]; MCF‐7, 24 h, 250 μM) | decrease in cell viability ([1]; MCF‐7, 24 h, 500 μM) | decrease in cell viability ([1]; MCF‐7, 48 h, 31.25 μM) | decrease in cell viability ([1]; MCF‐7, 48 h, 62.5 μM) | decrease in cell viability ([1]; MCF‐7, 48 h, 125 μM) | decrease in cell viability ([1]; MCF‐7, 48 h, 250 μM) | decrease in cell viability ([1]; MCF‐7, 48 h, 500 μM) | decrease in cell viability ([2]; A549, 24 h, 500 μM) | suppressive effect on cell proliferation / viability ([2]; A549, 24 h) | cell suppressive effect ([2]; A549, 24 h) | decrease in cell viability ([2]; A549, 48 h, 500 μM) | IC50 ([2]; A549, 24 h) | IC50 ([2]; A549, 48 h) | zone of inhibition [3] | zone of inhibition at 50 mg/mL [3] | further results
COc1ccc(C=C(C#N)c2ccccc2)cc1 [2a, 3‐(4‐methoxyphenyl)‐2‐phenylacrylonitrile] | 131 µM | 44 µM | 32% | 32% | 48% | 75% | 92% | 44% | 60% | 60% | 60% | 99% | 20% | did not show any cytotoxic activity | no cell suppressive effect | 94% | > 500 µM | 373 µM | 13 ± 1.41 mm | 13 mm | decrease in cell viability ([2]; A549, 48 h, 250 μM): 8%
COc1ccc(/C=C(\C#N)c2ccc(F)cc2)cc1 [2b] | 363 µM | 34 µM | 23% | 26% | 17% | 23% | 82% | 49% | 68% | 71% | 86% | 91% | 9% |  | no cell suppressive effect | 71% | > 500 µM | 422 µM | 12 ± 0.71 mm | 12 mm | cell suppressive effect ([2]; A549, 48 h): no cell suppressive effect
COc1ccc(/C=C(\C#N)c2cc(C(F)(F)F)cc(C(F)(F)F)c2)cc1 [2c] | 409 µM | 294 µM | 9% | 10% | 11% | 17% | 69% | 25% | 27% | 26% | 42% | 85% |  | no suppressive effect |  | 56% | > 500 µM | 473 µM | 15 ± 0.71 mm | 15 mm | 
